Assay results as given in patent US10494610B2, “Three dimensional matrix for cancer stem cells” (UNIVERSITY OF SOUTH CAROLINA, priority 2013, dated 2019).
“Also recorded” adds a separate entry of the source. No end group written: not given here.

System: 4T1 mouse breast carcinoma cells
Experiment: Tumorsphere formation, size and cell number of cells encapsulated in the gel
Assay type: cell-based
Details: 9 days; for tumorsphere formation: 4T1 in 5 kPa PEGDA gel with peptide conjugated (conj) or dissolved (dis); for cell number density compared with the gel without peptide: 4T1 in PEGDA gel with peptide conjugated (conj) or dissolved (dis)
Procedure: 4T1 and MCF7 tumor cells were cultured in RMPI-1640 medium with 10% FBS under 5% CO2 at 37° C. Cells were trypsinized after reaching 70% confluency. PEGDA macromer was dissolved in PBS and sterilized by filtration with a 0.2 μm filter. Next, 1.4×10^5/mL 4T1 or MCF7 cells suspended in PBS were added to the macromer solution with final PEGDA concentrations ranging 5-25 wt % and mixed gently with a pre-sterilized glass rod. The cell-suspended hydrogel precursor solution was crosslinked with UV for 10 min. After crosslinking, the gel was cut into disks and incubated in stem cell culture medium in ultra-low attachment tissue culture plates under 5% CO2. The stem cell medium consisted of DMEM-F12 supplemented with 0.4% bovine serum albumin (BSA), 5 μg/mL insulin, 40 ng/mL basic fibroblast growth factor (bFGF), 20 ng/mL EGF, 5% horse serum, 100 U/mL penicillin, and 100 μg/mL streptomycin.
To determine cell viability, gels were stained with cAM/EthD live/dead dyes 2 days after encapsulation to image live and dead cells, respectively. Stained samples were imaged with an inverted fluorescent microscope (Nikon Eclipse Ti-ε, Nikon, Melville, N.Y.). Cell viability was quantified by dividing the image into smaller squares and counting the number of live and dead cells. At each time point, the gel samples were removed from the culture media and stained for imaging. Samples were rinsed twice with PBS and fixed with 4% paraformaldehyde for 3 h. After fixation, cells were permeabilized using PBS containing 0.1% Triton X-100 for 5 min. After rinsing, cells were incubated with Alexa 488 phalloidin (1:200 dilution) and DAPI (1:5000 dilution) to stain actin filaments of the cell cytoskeleton and cell nuclei, respectively. Stained samples were imaged with a Nikon Eclipse Ti-ε inverted fluorescent microscope. For visualization of cell uniformity, a confocal fluorescent microscope (Zeiss LSM-510 META Axiovert, Carl Zeiss, Germany) was used to obtain 2D images (90 μm thick layers) of the stained gels in the direction of thickness. For determination of cell number, the gel samples were homogenized, cells were lysed, and aliquots were used to measure the double stranded DNA (dsDNA) content using a Quant-it PicoGreen assay. Briefly, an aliquot (100 μL) of the working solution was added to 100 μL of the cell lysate and incubated for 4 min at ambient conditions. The fluorescence of the solution was measured with a plate reader (Synergy HT, Bio-Tek, Winooski, Vt.) at emission and excitation wavelength of […], respectively. Measured fluorescent intensities were correlated to cell numbers using a calibration curve constructed with 4T1 or MCF7 cells of known concentration ranging from zero to […].
The tumor cells were cultured in RMPI-1640 medium with 10% FBS under 5% CO2 at 37° C. Cells were trypsinized after reaching 70% confluency. The synthesized acrylamide-terminated peptides were added to the PEGDA macromer solution and the mixture was sterilized by filtration (220 nm filter). Next, 1.4×10^5/ml cells (4T1, MCF7, or MCF10a) were added to the macromer solution and mixed gently with a pre-sterilized glass rod. The cell-suspended hydrogel precursor solution was crosslinked with UV for 10 min as described above. After cross-linking, the gel was cut into disks and incubated in stem cell culture medium on ultra-low attachment tissue culture plates under 5% CO2. The stem cell medium consisted of DMEM-F12 supplemented with 0.4% BSA, 5 μg/ml insulin, 40 ng/ml bFGF, 20 ng/ml EGF, 5% horse serum, 100 U/ml penicillin, and 100 μg/ml streptomycin. For growing tumorspheres in suspension, trypsinized cells (4T1 or MCF7) were cultured on ultra-low attachment tissue culture plates with stem cell culture medium under 5% CO2 at 37° C.
To determine cell viability, gels were stained with cAM and EthD dyes after cell encapsulation to image live and dead cells, respectively. […]

| Substance | tumorsphere formation | cell number density compared with the gel without peptide | tumorsphere formation (listed as CD44BP) | cell number density compared with the gel without peptide (listed as CD44BP) | size of cell aggregates / spheres (4T1 in peptide-conjugated gels) |
| --- | --- | --- | --- | --- | --- |
| GRGDS [IBP] | completely abolished | reduced cell number |  |  |  |
| RLVSYNGIIFFLK [conj CD44BP] (RLVSYNGIIFFLK-NH2; also: conjugated to PEGDA gel, site not given here) | completely abolished sphere formation | strongest effect on cell density | inhibits tumorsphere formation; also recorded: completely abolished | reduced cell number |  |
| WQPPRARI [FHBP] | increased; also recorded: enhanced | higher cell number |  |  | larger spheres |
